Experiment [1] has as its system ATXN3 transcripts containing exon 4. Description: ATXN3 quantitative splicing assay (qPCR, E4E5 transcripts containing exon 4). The experiment is classed as cell-based. The settings on record: Human neuroblastoma SK-N-MC cells, 24 h treatment, qPCR primers/probe E4E5. On the procedure: Human neuroblastoma SK-N-MC cells were plated in 384-well plates at 20,000 cells/well. Twenty-four hours after plating, cells were treated with compounds for 24 h at appropriate concentrations ranging from 30 μM to 0.6 nM (0.3% DMSO). Treated cells were lysed in 15 μL of lysis buffer, and cDNA was synthesized using the Fast Advanced Cells-to-Ct kit. Two μL of each cDNA was used in qPCR reactions to confirm the exon 4 skipped transcripts of ATXN3. A second set of primers/probe E4E5 was used to detect the transcripts containing exon 4. The third set of primers/probe E8E9 was used to detect total gene level of ATXN3. The qPCR reactions were prepared in 384-well plates in 10.L volume, using TaqMan™ Fast Advanced Master Mix with primers and probes shown in the table below. Reactions were run in a Quant Studio 6 qPCR instrument with default settings.
The primers and probes are listed below in Table 5.
For orientation: Quantitative PCR measures a nucleic acid by following its amplification.

The subject of experiment [2] is total ATXN3 protein. The experiment can be described thus: ATXN3 total protein assay (Mesoscale Discovery). It counts as cell-based. The settings on record: Human neuroblastoma SK-N-MC cells, 48 hours incubation, MSD assay. On the procedure:
Human neuroblastoma SK-N-MC cells were seeded at 10,000 cells/well in 384 well plates one day prior to compound treatment. The concentrations of compounds were tested at appropriate doses ranging from 30 µM to 0.6 nM. After incubation for 48 hours, the cells were lysed with 25.L of lysis buffer containing protease inhibitors, and total ATXN3 protein levels were assessed by Mesoscale Discovery (MSD) assay developed with one pair of and-ATXN3 antibodies. The capture and detect antibodies were raised in mouse and rabbit respectively. Anti-rabbit MSD-ST antibody was used for secondary antibody.
ATXN3 recombinant protein was used for standards. The readouts were captured with 35.L of MSD read buffer and multi-array 384-well high binding plates.

As usually defined, the IC50 is the concentration that inhibits the measured activity by half. A lower IC50 goes with greater potency. `Cc1c(C[C@@H](N)c2ccccc2)sc2c(NCc3cccs3)snc12` [Compound 71, 7-[(R)-2-amino-2-phenylethyl]-8-methyl-4-thenylamino-3,6-dithia-2-azabicyclo[3.3.0]octa-1,4,7-triene]: the IC50 in experiment [1] was 10 to 40 µM; in experiment [2], 5 to 10 µM.
For the molecule `Cc1c(C[C@@H](N)[C@H](C)F)sc2c(NCc3cccs3)snc12` [Compound 72, 7-[(2R,3S)-2-amino-3-fluorobutyl]-8-methyl-4-thenylamino-3,6-dithia-2-azabicyclo[3.3.0]octa-1,4,7-triene], the IC50 in experiment [1] fell in the range of 0.501 to 5 µM; in experiment [2], 0.101 to 0.5 µM.
Take `Cc1c(C[C@@H](N)[C@@H](C)F)sc2c(NCc3cccs3)snc12` [Compound 73, 7-[(2R,3R)-2-amino-3-fluorobutyl]-8-methyl-4-thenylamino-3,6-dithia-2-azabicyclo[3.3.0]octa-1,4,7-triene]: the results for the IC50 in experiment [1] and in experiment [2] were 10 to 40 µM and 5 to 10 µM, respectively.
Turning to `C[C@H](F)[C@H](N)Cc1sc2c(NCc3cccs3)snc2c1Cl` [Compound 74, 7-[(2R,3S)-2-amino-3-fluorobutyl]-8-chloro-4-thenylamino-3,6-dithia-2-azabicyclo[3.3.0]octa-1,4,7-triene], the IC50 in experiment [1] and in experiment [2] was 0.101 to 0.5 µM in each case.
Regarding `C[C@@H](F)[C@H](N)Cc1sc2c(NCc3cccs3)snc2c1Cl` [Compound 75, 7-[(2R,3R)-2-amino-3-fluorobutyl]-8-chloro-4-thenylamino-3,6-dithia-2-azabicyclo[3.3.0]octa-1,4,7-triene], the IC50 in experiment [1] lay within 0.101 to 0.5 µM; in experiment [2], 0.501 to 5 µM.
For `C[C@H](N)Cc1sc2c(NCc3nccs3)snc2c1Cl` [Compound 76, 7-[(S)-2-aminopropyl]-8-chloro-4-{[(1,3-thiazol-2-yl)methyl]amino}-3,6-dithia-2-azabicyclo[3.3.0]octa-1,4,7-triene] the same measures were 0.101 to 0.5 µM and 0.101 to 0.5 µM.
Regarding `CC(=O)N[C@@H](C)Cc1sc2c(NCc3cccs3)snc2c1C` [Compound 79, N-[(2S)-1-{6-methyl-3-[(thiophen-2-ylmethyl)amino]thieno[3,2-c][1,2]thiazol-5-yl}propan-2-yl]acetamide], the 50% inhibitory concentration (IC50) in experiment [1] and in experiment [2] was 10 to 40 µM throughout.
On to `N[C@H](Cc1sc2c(NCc3cccs3)snc2c1Br)C1CC(F)(F)C1` [Compound 80, 7-[(R)-2-amino-2-(3,3-difluorocyclobutyl)eth-yl]-8-bromo-4-thenylamino-3,6-dithia-2-azabicyclo[3.3.0]octa-1,4,7-triene], for which the figures for the IC50 in experiment [1] and in experiment [2] were 0.501 to 5 µM and 5 to 10 µM, respectively.
`C[C@H](N)Cc1sc2c(NCc3ccco3)snc2c1C(F)(F)F` [Compound 81, 7-[(S)-2-aminopropyl]-4-(furfurylamino)-8-(trifluoromethyl)-3,6-dithia-2-azabicyclo[3.3.0]octa-1,4,7-triene]: the IC50 in experiment [1] and in experiment [2] was 0.501 to 5 µM each time.
Consider `FC(F)(F)c1csc2c(NCc3ccco3)snc12` [Compound 82, (furfuryl){8-(trifluoromethyl)-3,6-dithia-2-azabicyclo[3.3.0]octa-1,4,7-trien-4-yl}amine], for which the IC50 in experiment [1] and in experiment [2] was 10 to 40 µM in each case.
As to `Cc1c(C[C@@H](N)C2CC(F)(F)C2)sc2c(NCc3cccs3)snc12` [Compound 84, 7-[(R)-2-amino-2-(3,3-difluorocyclobutyl)eth-yl]-8-methyl-4-thenylamino-3,6-dithia-2-azabicyclo[3.3.0]octa-1,4,7-triene], the values for the IC50 in experiment [1] and in experiment [2] were 0.501 to 5 µM and 5 to 10 µM, respectively.
For `CSc1c(C[C@H](C)N)sc2c(NCc3ccco3)snc12` [Compound 85, 7-[(S)-2-aminopropyl]-4-(furfurylamino)-8-(methylthio)-3,6-dithia-2-azabicyclo[3.3.0]octa-1,4,7-triene] the same measures were 5 to 10 µM and 10 to 40 µM.
For `C[C@H](N)Cc1sc2c(NCc3cccs3)snc2c1CO` [Compound 87, {7-[(S)-2-aminopropyl]-4-thenylamino-3,6-dithia-2-azabicyclo[3.3.0]octa-1,4,7-trien-8-yl}methanol] the same measures were 10 to 40 µM and 10 to 40 µM.
Regarding `CC(=O)Nc1csc2c(NCc3cccs3)snc12` [Compound 88, N-(4-thenylamino-3,6-dithia-2-azabicyclo[3.3.0]octa-1,4,7-trien-8-yl)acetamide], the IC50 in experiment [1] and in experiment [2] was 10 to 40 µM throughout.
Take `N[C@H](Cc1sc2c(NCc3cccs3)snc2c1Cl)C(CO)CO` [Compound 89, 2-{(R)-1-amino-2-(8-chloro-4-thenylamino-3,6-dithia-2-azabicyclo[3.3.0]octa-1,4,7-trien-7-yl)ethyl}-1,3-propanediol]: the IC50 is 5 to 10 µM in experiment [1] and 0.501 to 5 µM in experiment [2].
Consider `CSc1csc2c(NCc3ccco3)snc12` [Compound 90, (furfuryl){8-(methylthio)-3,6-dithia-2-azabicyclo[3.3.0]octa-1,4,7-trien-4-yl}amine], for which the concentration for half-maximal inhibition (IC50) in experiment [1] and in experiment [2] was 10 to 40 µM each time.
For the molecule `C[C@H](F)[C@H](N)Cc1sc2c(NCc3sccc3F)snc2c1Br` [Compound 93, 7-[(2R,3S)-2-amino-3-fluorobutyl]-8-bromo-4-{[(3-fluoro-2-thienyl)methyl]amino}-3,6-dithia-2-azabicyclo[3.3.0]octa-1,4,7-triene], the IC50 in experiment [1] and in experiment [2] was 0.501 to 5 µM in each case.
On to `C[C@@H](F)[C@H](N)Cc1sc2c(NCc3sccc3F)snc2c1Cl` [Compound 94, 7-[(2R,3R)-2-amino-3-fluorobutyl]-8-chloro-4-{[(3-fluoro-2-thienyl)methyl]amino}-3,6-dithia-2-azabicyclo[3.3.0]octa-1,4,7-triene], for which the IC50 in experiment [1] and in experiment [2] was 5 to 10 µM each time.
On to `C[C@H](F)[C@H](N)Cc1sc2c(NCc3sccc3F)snc2c1Cl` [Compound 95, 7-[(2R,3S)-2-amino-3-fluorobutyl]-8-chloro-4-{[(3-fluoro-2-thienyl)methyl]amino}-3,6-dithia-2-azabicyclo[3.3.0]octa-1,4,7-triene], for which the IC50 in experiment [1] and in experiment [2] was 0.501 to 5 µM each time.
For `C[C@H](F)[C@H](N)Cc1sc2c(NCc3ccc(F)s3)snc2c1Cl` [Compound 96, 7-[(2R,3S)-2-amino-3-fluorobutyl]-8-chloro-4-{[(5-fluoro-2-thienyl)methyl]amino}-3,6-dithia-2-azabicyclo[3.3.0]octa-1,4,7-triene], the values for the IC50 in experiment [1] and in experiment [2] were 0.501 to 5 µM and 5 to 10 µM, respectively.
For `C=Cc1c(C[C@@H](N)[C@H](C)F)sc2c(NCc3cccs3)snc12` [Compound 97, 7-[(2R,3S)-2-amino-3-fluorobutyl]-4-thenylamino-8-vinyl-3,6-dithia-2-azabicyclo[3.3.0]octa-1,4,7-triene] the same measures were 0.501 to 5 µM and 0.501 to 5 µM.
For `C[C@H](N)C(F)(F)c1sc2c(NCc3cccs3)snc2c1Cl` [Compound 98, 7-[(S)-2-amino-1,1-difluoropropyl]-8-chloro-4-thenylamino-3,6-dithia-2-azabicyclo[3.3.0]octa-1,4,7-triene] the same measures were 0.501 to 5 µM and 0.501 to 5 µM.
For `C[C@H](N)C(F)(F)c1sc2c(NCc3cccs3)snc2c1Br` [Compound 99, 5-[(2S)-2-amino-1,1-difluoropropyl]-6-bromo-N-(thiophen-2-ylmethyl)thieno[3,2-c][1,2]thiazol-3-amine] the same measures were 0.501 to 5 µM and 0.501 to 5 µM.
Consider `N[C@@H](COC1CC1)Cc1sc2c(NCc3cccs3)snc2c1Br` [Compound 100, 7-[(R)-2-amino-3-cyclopropoxypropyl]-8-bromo-4-thenylamino-3,6-dithia-2-azabicyclo[3.3.0]octa-1,4,7-triene], for which the IC50 in experiment [1] and in experiment [2] was 0.501 to 5 µM throughout.
Consider `N[C@H](Cc1sc2c(NCc3ccco3)snc2c1Cl)C(F)F` [Compound 101, 7-[(R)-2-amino-3,3-difluoropropyl]-8-chloro-4-(furfurylamino)-3,6-dithia-2-azabicyclo[3.3.0]octa-1,4,7-triene], for which the IC50 in experiment [1] and in experiment [2] was 0.501 to 5 µM in each case.
As to `C[C@H](N)C(O)c1sc2c(NCc3cccs3)snc2c1Cl` (stereo partly drawn) [Compound 102, (2S)-2-amino-1-(8-chloro-4-thenylamino-3,6-dithia-2-azabicyclo[3.3.0]octa-1,4,7-trien-7-yl)-1-propanol], the IC50 in experiment [1] and in experiment [2] was 10 to 40 µM each time.
As to `C[C@H](N)C(O)c1sc2c(NCc3cccs3)snc2c1Br` (stereo partly drawn) [Compound 103, (2S)-2-amino-1-{6-bromo-3-[(thiophen-2-ylmethyl)amino]thieno[3,2-c][1,2]thiazol-5-yl}propan-1-ol], the IC50 in experiment [1] and in experiment [2] was 10 to 40 µM throughout.
Consider `N[C@@H](CF)Cc1sc2c(NCc3nccs3)snc2c1Br` [Compound 104, 7-[(R)-2-amino-3-fluoropropyl]-8-bromo-4-{[(1,3-thiazol-2-yl)methyl]amino}-3,6-dithia-2-azabicyclo[3.3.0]octa-1,4,7-triene], for which the concentration for half-maximal inhibition (IC50) in experiment [1] and in experiment [2] was 0.501 to 5 µM each time.

For the origin of these results see patent publication US20250340570A1, “COMPOSITIONS USEFUL FOR MODULATING SPLICING” (Skyhawk Therapeutics, Inc., priority 2022, published 2025).
